The values below come from patent EP0782987A1, “INDOLE DERIVATIVES” (KYOWA HAKKO KOGYO CO., LTD., priority 1995, dated 1997).

As a reminder, the IC50 is the concentration needed to halve the response being measured.

In one test the test system is ovariectomized rats. Put plainly: Inhibitory effect on the increase of urinary hydroxyproline excretion by ovariectomy. The test is classed as in vivo, female SD strain rats. The note with it: 10 mg/kg orally once a day for two weeks, hydroxyproline/creatinine molar ratio in 24 hour urine. The procedure:
The inhibitory effect of the compounds of the present application on bone resorption was also determined by their inhibitory effect on the excretion of urinary hydroxyproline which is elevated by ovariectomy of the animals tested, according to the report of Kalu et al. [Bone and Mineral., 14, 175 (1991)].
Test Example 2: Inhibitory effect on the increase of urinary hydroxyproline excretion by ovariectomy
12-weeks-old female SD strain rats (Japan Clea Co., Ltd.) were acclimated for 1 week during which they were given tap water and a standard diet (F2; Funabashi Farmas) ad libitum. The experiment was carried out using the rats weighing 270-310 g. After the animals were subjected to sham operation or bilateral ovariectomy, they were allowed free access to water passed through ion exchange resin instead of tap water, and were housed in individual cages. The test compound (10 mg/kg) was suspended in 0.3% Tween, and the obtained suspension was orally administered to the ovariectomized rats once a day for two weeks starting from the day following ovariectomy (0.5 ml/100 g body weight). 0.3% Tween was similarly administered to sham-operated rats and ovariectomized control rats. After the final administration, the rats were placed in individual metabolic cages and fasted during 24 hours, and urine was collected. The volume of the collected urine was measured and the urine was centrifuged at 3,000 rpm for 15 min at 4°C. The concentration of hydroxyproline in the supernatant was measured by the method of Ikeda et al. [Ann. Rep. Tokyo Metr. Res. Lab. P. H., 36, 277-282 (1985)] and the concentration of creatinine in the supernatant was measured with creatinine test WAKO (Wako Pure Chem.) The amount of urinary hydroxyproline excretion was expressed by the molar ratio of the amount of hydroxyproline to the amount of creatinine. The rate of inhibition on increase of the amount of urinary hydroxyproline excretion in ovariectomized rats treated with the test compound compared to that of the control group was calculated using the following equation. […]

For test [1], the system named is calvaria (PTH enhanced bone). Put plainly: Inhibitory effect on bone absorption (calcium liberation from PTH enhanced cultured calvaria). The test is classed as cell-based, newborn dd mouse. The note with it: mouse calvaria culture, PTH 1 x 10^-8M, 96 hours, calcium in the culture; test compound 3 x 10^-6M, 1 x 10^-5M, 3 x 10^-5M. Here is the method: Test Example 1: Inhibitory effect on bone absorption
The calvaria was excised from a newborn dd mouse (5 to 6 days old) under sterile conditions. The calvaria was washed with a modified Dulbecco phosphate buffer physiological saline solution containing neither calcium nor magnesium (a product of Gibco Oriental), and divided into two parts along the center suture. A half of the calvaria was cultivated in a modified Dulbecco Eagle medium (1.5 ml) (a product of Gibco Oriental) containing 2.5% fetal calf serum and 15% equine serum which had been inactivated by heating at 56°C for 20 minutes. The test compound was dissolved in dimethyl sulfoxide and 10 µl of the resulting solution was added to the culture medium to give the final concentrations of 3 x 10^-6M, 1 x 10^-5M, and 3 x 10^-5M. PTH (parathyroid hormone) was dissolved in a 0.15 M saline solution (pH 3) and 3 µl of the resulting solution was added to the culture medium to give the final concentration of 1 x 10^-8M. The culturing was carried out under the condition of 95% air and 5% carbon dioxide and at a temperature of 37°C for 96 hours. At 48 hours after the start of the culturing, the culture medium was renewed and the test compound and PTH treated as defined above were added thereto. For examining the effect of the test compound on calcium liberation (bone absorption) from the PTH enhanced bone, a control group, a group using PTH (1 x 10^-8M), and a group using both the test compound (3 x 10^-6M, 1 x 10^-5M, 3 x 10^-5M) and PTH were prepared. The amount of the bone absorption was determined by measuring the amount of calcium accumulated in the culture as collected after 96 hours of culturing. The total calcium concentration in the culture was measured with Calcium C Test Wako. The inhibition rate was calculated using the following equation and the result was shown in terms of 50% inhibitory concentration (IC50). Inhibition of bone absorption from PTH enhanced bone Inhibition rate (%) = [(CP - CD )/(CP - C0 )] x 100 [formula] • C0 : The total calcium concentration in the culture containing neither the test compound nor PTH. • CP : The total calcium concentration in the culture treated with only PTH. • CD : The total calcium concentration in the culture treated with both the test compound and PTH.

As for `O=S(=O)(c1c(C(c2ccc(O)cc2)c2ccc(O)cc2)c2ccccc2n1CCN1CCOCC1)N1CCN(c2ccccc2Cl)CC1` [Compound 16, 3-[Bis(4-hydroxyphenyl)methyl]-2-[4-(2-chlorophenyl)piperazinylsulfonyl]-1-(2-morpholinoethyl)indole], in the test with ovariectomized rats, the “Inhibition rate of increase of the amount of urinary hydroxyproline excretion” value is 32%.

Consider `CCN(CC)S(=O)(=O)c1c(C(c2ccc(O)cc2)c2ccc(O)cc2)c2ccccc2n1CCN(C)C` [Compound 18, N,N-Diethyl-3-[bis(4-hydroxyphenyl)methyl]-1-(2-dimethylaminoethyl)indole-2-sulfonamide], for which the IC50 in test [1] was determined as 13.3 µM. For the same compound, in the test on ovariectomized rats, the “Inhibition rate of increase of the amount of urinary hydroxyproline excretion” value was determined as 22%.

Consider `CN(C)CCn1c(S(=O)(=O)N2CCCCC2)c(C(c2ccccc2)c2ccccc2)c2ccccc21` [Compound 24, 1-(2-Dimethylaminoethyl)-3-(diphenylmethyl)-2-(piperidinosulfonyl)indole], for which, in test [1], the IC50 was 13.7 µM. The “Inhibition rate of increase of the amount of urinary hydroxyproline excretion” value with ovariectomized rats is listed as 100%.

Turning to `CN(C)CCn1c(S(=O)(=O)N2CCCCC2)c(C(c2ccc(O)cc2)c2ccc(O)cc2)c2ccccc21` [Compound 17, 3-[Bis(4-hydroxyphenyl)methyl]-1-(2-dimethylaminoethyl)-2-(piperidinosulfonyl)indole], the IC50 in test [1] is 13.7 µM.

Take `O=S(=O)(c1[nH]c2ccccc2c1C(c1ccc(O)cc1)c1ccc(O)cc1)N1CCN(c2ccccc2Cl)CC1` [Compound 14, 3-[Bis(4-hydroxyphenyl)methyl]-2-[4-(2-chlorophenyl)piperazinylsulfonyl]indole]: the IC50 in test [1] amounted to 14.1 µM.
